Experimental findings from US7834194B2, “Cycloalkyl lactam derivatives as inhibitors of 11-beta-hydroxysteroid dehydrogenase 1” (Eli Lilly and Company, priority 2004, dated 2010) are described below.

Sequence of recombinant human 11β-HSD type 1 enzyme (P28845 whole entry): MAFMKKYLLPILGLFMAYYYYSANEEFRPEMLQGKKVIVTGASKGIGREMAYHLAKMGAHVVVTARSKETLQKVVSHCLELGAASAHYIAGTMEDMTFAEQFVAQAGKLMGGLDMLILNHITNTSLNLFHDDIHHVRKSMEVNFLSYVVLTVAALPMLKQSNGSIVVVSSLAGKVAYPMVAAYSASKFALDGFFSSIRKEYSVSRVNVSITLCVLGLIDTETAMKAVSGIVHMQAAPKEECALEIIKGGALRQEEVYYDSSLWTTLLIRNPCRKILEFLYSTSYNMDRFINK

For the assay, the target named is recombinant human 11β-HSD type 1 enzyme (Homo sapiens, UniProt P28845). Put plainly: 11β-HSD type 1 enzyme assay (NADPH production by fluorescence). The class given is biochemical. The settings on record: three hour incubation at room temperature. On the procedure:
11β-HSD Type 1 Enzyme Assay
Human 11β-HSD type 1 activity is measured by assaying NADPH production by fluorescence assay. Solid compounds are dissolved in DMSO to a concentration of 10 mM. Twenty microliters of each are then transferred to a column of a 96-well polypropylene Nunc plate where they are further diluted 50-fold followed by subsequent two-fold titration, ten times across the plate with additional DMSO using a Tecan Genesis 200 automated system. Plates are then transferred to a Tecan Freedom 200 system with an attached Tecan Temo 96-well head and an Ultra 384 plate reader. Reagents are supplied in 96-well polypropylene Nunc plates and are dispensed individually into black 96-well Molecular Devices High Efficiency assay plates (40 μL/well capacity) in the following fashion: 9 μL/well of substrate (2.22 mM NADP, 55.5 μM Cortisol, 10 mM Tris, 0.25% Prionex, 0.1% Triton X100), 3 μL/well of water to compound wells or 3 μL to control and standard wells, 6 μL/well recombinant human 11β-HSD type 1 enzyme, 2 μL/well of compound dilutions. For ultimate calculation of percent inhibition, a series of wells are added that represent assay minimum and maximum: one set containing substrate with 667 μM carbenoxolone (background), and another set containing substrate and enzyme without compound (maximum signal). Final DMSO concentration is 0.5% for all compounds, controls and standards. Plates are then placed on a shaker by the robotic arm of the Tecan for 15 seconds before being covered and stacked for a three hour incubation period at room temperature. Upon completion of this incubation, the Tecan robotic arm removes each plate individually from the stacker and places them in position for addition of 5 μL/well of a 250 μM carbenoxolone solution to stop the enzymatic reaction. Plates are then shaken once more for 15 seconds then placed into an Ultra 384 microplate reader (355EX/460EM) for detection of NADPH fluorescence.
Take `O=C1C(Cc2cc3ccccc3s2)CCN1C1CCCCC1` (stereo not shown): the IC50 (commonly the concentration that gives 50% inhibition) worked out at 190 nM.
Under `O=C(O)c1ccc(-c2ccc3sc(CC4CCN(C5CCCCC5)C4=O)cc3c2)cc1` (stereo not shown) stands 427 nM; under `O=C1C(Cc2cc3cc(-c4ccnc(F)c4)ccc3s2)CCN1C1CCCCC1` (stereo not shown), 257 nM.
Next, `COc1ccc2c(Cl)c(CC3CCN(C4CCCCC4)C3=O)sc2c1` (stereo not shown): 508 nM; `O=C1C(Cc2sc3cc4c(cc3c2Cl)OCO4)CCN1C1CCCCC1` (stereo not shown): 162 nM; `O=C1C(Cc2cc3ccccc3o2)CCN1C1CCCCC1` (stereo not shown): 682 nM.
Under `O=C1C(Cc2sc3ccccc3c2Cl)CCCN1C1CCC(O)CC1` (stereo not shown) stands 276 nM.
